Here are results for 17 compounds from patent US10392383B2, “3-(1H-benzo[d]imidazol-2-yl)-1H-pyrazolo[4,3-b]pyridines and therapeutic uses thereof” (Samumed, LLC, priority 2015, dated 2019).

Experiment [1] deals with SW480 colon cancer cells. The experiment in a line: Cell viability assay (CellTiter-Blue) in SW480 cells. Format: cell-based. The following applies: Homo sapiens, 96 h, four days; for pEC50: CellTiter-Blue, 10 μM to 0.0045 μM; for inhibition at 10 µM: read-out: percent inhibition at 10 μM (given for EC50 of >10 μM). The method, then:
Representative compounds were screened using the following assay procedure to assess the effect on cell viability as described below.
Each compound was dissolved in DMSO as a 10 mM stock and used to prepare compound source plates. Serial dilution (1:3, 8-point dose-response curves from 10 μM to 0.0045 μM) and compound transfer was performed using the ECHO 550 (Labcyte, Sunnyvale, Calif.) into 96-well clear bottom, black-walled plates (Corning-Costar).
Approximately 2×10^3 SW480 colon cancer cells were seeded into each well and allowed to incubate in the presence or absence of compound for four days at 37° C./5% CO2. Eight replicates of DMSO-treated cells served as controls and cells treated with compound were performed in duplicate.
After incubation, 20 μL of CellTiter-Blue (Promega) was added to each well allowed to incubate for approximately 3 hours. This reagent was a buffered solution which contains resazurin, metabolically active cells were able to reduce rezarurin (blue) into resorufin (pink) which was highly fluorescent. This measured fluorescence was used as a readout for cell viability.
After incubation, the plates were read at Ex 560 nm Em 590 nm (Cytation 3, BioTek). Dose-response curves were generated and EC50 concentration values were calculated using non-linear regression curve fit in the GraphPad Prism (San Diego, Calif.) or Dotmatics' Studies Software (Bishops Stortford, UK). For EC50 of >10 μM, the percent inhibition at 10 μM is provided.

In experiment [2] the test system is IL-6 (THP-1 cells). In words: IL-6 inhibition in LPS-stimulated THP-1 monocytes (HTRF). It counts as cell-based. The following applies: Homo sapiens, IL-6 HTRF; for pEC50: 500 ng/mL LPS, Table 6; for inhibition at 10 µM: LPS, Table 6, read-out: percent inhibition at 10 μM (given in parentheses for EC50 >10 μM). The method, then:
Human Monocyte Cell Culture: Human monocyte cell line (THP-1 cells; Catalog # TIB-202, ATCC, Manassas, Va.) were cultured in Roswell Park Memorial Institute (RPMI) 1640 Medium (Catalog #21870-100, Buffalo, N.Y.) with 1% L-glutamine, 1% HEPES, 1% Sodium Pyruvate, 2% Sodium Bicarbonate supplemented with 100 units/mL penicillin, 50 μg/mL streptomycin, 2-mercaptoethanol (0.05 mM) [basal medium] and 10% fetal bovine serum (Catalog #16140089, Life Technologies, Carlsbad, Calif.) at 37° C. and 5% CO2.
Compound Screening: THP-1 cells were cultured in basal media with 1% FBS for 24 hours before the start of the assay. Each compound was dissolved in DMSO as a 10 mM stock and used to prepare compound source plates. Serial dilution (1:3, 10-point dose-response curves starting from 10 μM) and compound transfer was performed using the ECHO 550 (Labcyte, Sunnyvale, Calif.) into 384-well white low volume assay plates (Greiner Bio-One) with appropriate DMSO backfill for a final DMSO concentration of 0.1%. THP-1 cells were plated at 5000 cells/well in the 384-well plates and incubated at 37° C. for 2 h. 500 ng/mL of LPS was added after 2 hours and cells were incubated for another 22 hours at 37° C. Plates were spun in a centrifuge for 1 minute at […] and a mixture of anti-IL6 XL665, and anti-IL6 Cryptate diluted in reconstitution buffer (Cisbio Inc.) was added to each well. Following incubation for 3 hrs at room temperature, Homogeneous Time-Resolved Fluorescence (HTRF) was measured using the Envision (Perkin Elmer) at 665 nm and […]. The ratio of fluorescence at 665 nm to 620 nm was used as a readout for IL6 quantification. All samples were processed in duplicate. Readings were normalized to DMSO treated cells and normalized activities were utilized for EC50 calculations using the dose-response log (inhibitor) vs. response-variable slope (four parameters) nonlinear regression feature available in GraphPad Prism 5.0 (or Dotmatics). For EC50 of >10 μM, the percent inhibition at 10 μM is provided.

pEC50: −log10 of the molar value. A value given as a limit tells only on which side of the number the result lay.

With `Fc1cccc(-c2cccc3[nH]c(-c4n[nH]c5ccc(-c6cncc(CN7CCC(F)(F)C7)c6)nc45)nc23)c1` [Compound 26, 5-(5-((3,3-Difluoropyrrolidin-1-yl)methyl)pyridin-3-yl)-3-(4-(3-fluorophenyl)-1H-benzo[d]imidazol-2-yl)-1H-pyrazolo[4,3-b]pyridine], the figures for the pEC50 in experiment [1] and in experiment [2] were 5.23 and 5.29, respectively.
For the compound `CC(C)C(=O)Nc1cncc(-c2ccc3[nH]nc(-c4nc5c(-c6ccccc6F)cccc5[nH]4)c3n2)c1` [Compound 65, N-(5-(3-(4-(2-fluorophenyl)-1H-benzo[d]imidazol-2-yl)-1H-pyrazolo[4,3-b]pyridin-5-yl)pyridin-3-yl)isobutyramide], the figures for the inhibition at 10 µM in experiment [1] and in experiment [2] were 16.1% and 30.7%, respectively. In addition, the negative logarithm of the EC50 (pEC50) in experiment [1] and in experiment [2] was under 5.00 throughout.
On to `CC(C)(C)CC(=O)Nc1cncc(-c2ccc3[nH]nc(-c4nc5c(-c6ccccc6F)cccc5[nH]4)c3n2)c1` [Compound 72, N-(5-(3-(4-(2-Fluorophenyl)-1H-benzo[d]imidazol-2-yl)-1H-pyrazolo[4,3-b]pyridin-5-yl)pyridin-3-yl)-3,3-dimethylbutanamide], for which, in experiment [1], the inhibition at 10 µM came out at 2% and the pEC50 is under 5.00. Further, in experiment [2], the negative-log EC50 (pEC50) is under 5.00 and the inhibition at 10 µM was 14.1%.
Take `O=C(Nc1cncc(-c2ccc3[nH]nc(-c4nc5c(-c6ccccc6F)cccc5[nH]4)c3n2)c1)C1CCCC1` [Compound 78, N-(5-(3-(4-(2-Fluorophenyl)-1H-benzo[d]imidazol-2-yl)-1H-pyrazolo[4,3-b]pyridin-5-yl)pyridin-3-yl)cyclopentanecarboxamide]: in experiment [1], the inhibition at 10 µM was 20% and the pEC50 was under 5.00. Also, in experiment [2], the pEC50 was under 5.00 and the inhibition at 10 µM came to 19.1%.
Take `Fc1ccccc1-c1cccc2[nH]c(-c3n[nH]c4ccc(-c5cncc(CNCC6CCCC6)c5)nc34)nc12` [Compound 81, 1-Cyclopentyl-N-((5-(3-(4-(2-fluorophenyl)-1H-benzo[d]imidazol-2-yl)-1H-pyrazolo[4,3-b]pyridin-5-yl)pyridin-3-yl)methyl)methanamine]: the pEC50 in experiment [1] was 5.94; in experiment [2] it was 5.44.
For the compound `c1ccc(CNCc2cncc(-c3ccc4[nH]nc(-c5nc6c(-c7cccnc7)cccc6[nH]5)c4n3)c2)cc1` [Compound 108, N-Benzyl-1-(5-(3-(4-(pyridin-3-yl)-1H-benzo[d]imidazol-2-yl)-1H-pyrazolo [4,3-b]pyridin-5-yl)pyridin-3-yl)methanamine], the results for the negative logarithm of the EC50 (pEC50) in experiment [1] and in experiment [2] were 5.50 and 5.67, respectively.
With `c1cc(-c2ccncc2)c2nc(-c3n[nH]c4ccc(-c5ccncc5)nc34)[nH]c2c1` [Compound 130, 5-(Pyridin-4-yl)-3-(4-(pyridin-4-yl)-1H-benzo[d]imidazol-2-yl)-1H-pyrazolo [4,3-b]pyridine], in experiment [1], the inhibition at 10 µM amounted to 23.4% and the pEC50 is under 5.00. Moreover, in experiment [2], the negative logarithm of the EC50 (pEC50) was under 5.00 and the inhibition at 10 µM was 48.7%.
Consider `O=C(Nc1cncc(-c2ccc3[nH]nc(-c4nc5c(-c6ccncc6)cccc5[nH]4)c3n2)c1)C1CCCCC1` [Compound 135, N-(5-(3-(4-(pyridin-4-yl)-1H-benzo[d]imidazol-2-yl)-1H-pyrazolo[4,3-b]pyridin-5-yl)pyridin-3-yl)cyclohexanecarboxamide], for which, in experiment [1], the inhibition at 10 µM came out at 1% and the pEC50 was under 5.00. For the same compound, in experiment [2], the pEC50 was under 5.00 and the inhibition at 10 µM came out at 32.4%.
Consider `O=C(Nc1cncc(-c2ccc3[nH]nc(-c4nc5c(-c6ccccn6)cccc5[nH]4)c3n2)c1)c1ccccc1` [Compound 151, N-(5-(3-(4-(Pyridin-2-yl)-1H-benzo[d]imidazol-2-yl)-1H-pyrazolo[4,3-b]pyridin-5-yl)pyridin-3-yl)benzamide], for which the figures for the inhibition at 10 µM in experiment [1] and in experiment [2] were 20.8% and 22%, respectively. In addition, the pEC50 in experiment [1] and in experiment [2] was under 5.00 each time.
As to `CCCCC(=O)Nc1cncc(-c2ccc3[nH]nc(-c4nc5c(-c6ccccn6)cccc5[nH]4)c3n2)c1` [Compound 159, N-(5-(3-(4-(Pyridin-2-yl)-1H-benzo[d]imidazol-2-yl)-1H-pyrazolo[4,3-b]pyridin-5-yl)pyridin-3-yl)pentanamide], in experiment [1], the inhibition at 10 µM amounted to 11% and the pEC50 is under 5.00. Moreover, in experiment [2], the negative logarithm of the EC50 (pEC50) was under 5.00 and the inhibition at 10 µM amounted to 26.6%.
Take `CN(C)c1cncc(-c2ccc3[nH]nc(-c4nc5c(N6CCCCC6)cccc5[nH]4)c3n2)c1` [Compound 175, N,N-dimethyl-5-(3-(4-(piperidin-1-yl)-1H-benzo[d]imidazol-2-yl)-1H-pyrazolo[4,3-b]pyridin-5-yl)pyridin-3-amine]: the results for the pEC50 in experiment [1] and in experiment [2] were 5.22 and 5.53, respectively.
With `CN1CCN(c2cccc3[nH]c(-c4n[nH]c5ccc(-c6cncnc6)nc45)nc23)CC1` [Compound 251, 3-(4-(4-Methylpiperazin-1-yl)-1H-benzo[d]imidazol-2-yl)-5-(pyrimidin-5-yl)-1H-pyrazolo[4,3-b]pyridine], in experiment [1], the inhibition at 10 µM turned out to be 0%. Besides, the negative-log EC50 (pEC50) was under 5.00 in experiment [1] and 5.65 in experiment [2].
On to `O=C(Nc1cncc(-c2ccc3[nH]nc(-c4nc5c(-c6ccsc6)cccc5[nH]4)c3n2)c1)c1ccccc1` [Compound 291, N-(5-(3-(4-(Thiophen-3-yl)-1H-benzo[d]imidazol-2-yl)-1H-pyrazolo[4,3-b]pyridin-5-yl)pyridin-3-yl)benzamide], for which the pEC50 in experiment [1] is 5.46. Besides, in experiment [2], the pEC50 was under 5.00 and the inhibition at 10 µM was found to be 28.9%.
With `Cc1ccc(-c2cccc3[nH]c(-c4n[nH]c5ccc(-c6cncc(NC(=O)C7CCCC7)c6)nc45)nc23)s1` [Compound 414, N-(5-(3-(4-(5-Methylthiophen-2-yl)-1H-benzo[d]imidazol-2-yl)-1H-pyrazolo [4,3-b]pyridin-5-yl)pyridin-3-yl)cyclopentanecarboxamide], in experiment [1], the inhibition at 10 µM is 0%. Moreover, the pEC50 in experiment [1] is under 5.00; in experiment [2] it was 7.01.
With `CS(=O)(=O)NCc1cc(F)cc(-c2cccc3[nH]c(-c4n[nH]c5ccc(-c6cncc(NC(=O)c7ccccc7)c6)nc45)nc23)c1` [Compound 487, N-(5-(3-(4-(3-Fluoro-5-(methylsulfonamidomethyl)phenyl)-1H-benzo[d]imidazol-2-yl)-1H-pyrazolo[4,3-b]pyridin-5-yl)pyridin-3-yl)benzamide], in experiment [1], the inhibition at 10 µM came to 9.7% and the pEC50 was under 5.00. For the same compound, in experiment [2], the pEC50 is under 5.00 and the inhibition at 10 µM came to 0%.
`c1cc(-c2ccncc2)c2nc(-c3n[nH]c4ccc(-c5cncc(OC6CCNCC6)c5)nc34)[nH]c2c1` [Compound 576, 5-(5-(Piperidin-4-yloxy)pyridin-3-yl)-3-(4-(pyridin-4-yl)-1H-benzo[d]imidazol-2-yl)-1H-pyrazolo[4,3-b]pyridine]: in experiment [1], the inhibition at 10 µM is 9% and the negative logarithm of the EC50 (pEC50) was under 5.00. In experiment [2], the pEC50 was under 5.00 and the inhibition at 10 µM stood at 37%.
With `c1ccc(COc2cncc(-c3ccc4[nH]nc(-c5nc6c(-c7ccncc7)cccc6[nH]5)c4n3)c2)cc1` [Compound 582, 5-(5-(Benzyloxy)pyridin-3-yl)-3-(4-(pyridin-4-yl)-1H-benzo[d]imidazol-2-yl)-1H-pyrazolo[4,3-b]pyridine], in experiment [1], the inhibition at 10 µM amounted to 28.5% and the pEC50 was under 5.00. Besides, in experiment [2], the pEC50 was under 5.00 and the inhibition at 10 µM turned out to be 2.8%.
